Experiments:
Type in all cases: in vivo
Conditions in all cases: active ingredient amount 31 g/ha, 14th day after application
[1] = system: barnyardgrass (Echinochloa crus-qalli L.); assay: Test Example 1: foliar treatment, growth inhibition rate on 14th day
Method in brief: (§1)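 Visual 0–100% inhibition scoring (100 = complete kill) at 14 days after foliar treatment of soil-grown seedlings at species-specific leaf stages, with the compound sprayed as a wettable powder or emulsifiable concentrate dilution.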

corn (Zea mays L.) [2] = assay: as above
Method in brief: as §1

[3] = system: crabgrass (Digitaria sanquinalis L.); assay: as above
Method in brief: as §1

[4] = system: green foxtail (Setaria viridis L.); assay: as above
Method in brief: as §1

[5] = system: italian ryegrass (Lolium multiflorum Lam.); assay: as above
Method in brief: as §1

[6] = system: redroot pigweed (Amaranthus retroflexus L.); assay: as above
Method in brief: as §1

rice (Oryza sativa L.) [7] = assay: as above
Method in brief: as §1

[8] = system: soybean (Glycine max Merr.); assay: as above
Method in brief: as §1

[9] = system: wheat (Triticum aestivum L.); assay: as above
Method in brief: as §1

[10] = system: wild oat (Avena fatua L.); assay: as above
Method in brief: as §1

[11] = system: barnyardgrass (Echinochloa crus-qalli L.); assay: Test Example 2: soil application on the day after sowing, growth inhibition rate on 14th day
Method in brief: (§2)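 Upland soil pots; sowing, then next-day soil spraying of compound formulations (1,000 L/ha water) at defined a.i. doses. Day-14 visual rating of inhibition on a 0–100 scale, where 100 means complete kill.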

corn (Zea mays L.) [12] = assay: as above
Method in brief: as §2

[13] = system: crabgrass (Digitaris sanquinalis L.); assay: as above
Method in brief: as §2

[14] = system: green foxtail (Setaria viridis L.); assay: as above
Method in brief: as §2

[15] = system: prickly sida (Sida spinosa L.); assay: as above
Method in brief: as §2

[16] = system: redroot pigweed (Amaranthus retroflexus L.); assay: as above
Method in brief: as §2

rice (Oryza sativa L.) [17] = assay: as above
Method in brief: as §2

[18] = system: soybean (Glycine max Merr.); assay: as above
Method in brief: as §2

[19] = system: velvetleaf (Abutilon theophrasti MEDIC.); assay: as above
Method in brief: as §2

[20] = system: wheat (Triticum aestivum L.); assay: as above
Method in brief: as §2

[21] = visual, 0 = non-treated, 100 = complete kill

SMILES	Growth inhibition rate (%) Barnyardgrass [1] [%]	Growth inhibition rate (%) Corn (corn (Zea mays L.) [2]) [%]	Growth inhibition rate (%) Crabgrass [3] [%]	Growth inhibition rate (%) Green foxtail [4] [%]	Growth inhibition rate (%) Italian ryegrass [5] [%]	Growth inhibition rate (%) Redroot pigweed [6] [%]	Growth inhibition rate (%) Rice (rice (Oryza sativa L.) [7]) [%]	Growth inhibition rate (%) Soybean [8] [%]	Growth inhibition rate (%) Wheat [9] [%]	Growth inhibition rate (%) Wild oat [10] [%]	Growth inhibition rate (%) Barnyardgrass [11] [%]	Growth inhibition rate (%) Corn (corn (Zea mays L.) [12]) [%]	Growth inhibition rate (%) Crabgrass [13] [%]	Growth inhibition rate (%) Green foxtail [14] [%]	Growth inhibition rate (%) Prickly sida [15] [%]	Growth inhibition rate (%) Redroot pigweed [16] [%]	Growth inhibition rate (%) Rice (rice (Oryza sativa L.) [17]) [%]	Growth inhibition rate (%) Soybean [18] [%]	Growth inhibition rate (%) Velvetleaf [19] [%]	Growth inhibition rate (%) Wheat [20] [%]	other results
CC(=O)Oc1c(C)nn(C)c(=O)c1-c1cc(Oc2ncc(C(F)(F)F)cc2Cl)c(C)cc1C [1-152]	100	90	99	100	99	0	85	30	88	100	80	10	35	85	0	0	0	10	0	0	–
Cc1ccc(Oc2nc3cc(Cl)ccc3o2)cc1-c1c(O)cnn(C)c1=O [Compound 2-173]	99	65	95	88	90	0	85	0	75	35	65	10	80	10	0	0	20	0	0	0	–
Cc1ccc(Oc2ncc(Br)cc2Cl)cc1-c1c(O)c(C)nn(C)c1=O [Compound 2-101]	75	80	85	88	50	0	0	20	0	70	78	20	93	95	0	0	0	0	0	10	–
Cc1ccc(Oc2ncc(C(F)(F)F)cc2Br)cc1-c1c(O)c(C)nn(C)c1=O [Compound 2-83]	99	60	98	99	80	0	0	0	10	88	99	0	100	100	75	100	30	0	0	0	–
Cc1ccc(Oc2cnc3cc(Cl)ccc3n2)cc1-c1c(OC(=O)C=CCl)c(C)nn(C)c1=O [Compound 3-54]	–	–	–	–	–	–	–	–	–	–	99	0	30	98	0	0	0	0	0	0	Growth inhibition rate (%) Barnyardgrass [1, 21]: 100%; Growth inhibition rate (%) Corn (corn (Zea mays L.) [2]; [21]): 30%; Growth inhibition rate (%) Crabgrass [3, 21]: 98%; Growth inhibition rate (%) Green foxtail [4, 21]: 100%; Growth inhibition rate (%) Italian ryegrass [5, 21]: 95%; Growth inhibition rate (%) Redroot pigweed [6, 21]: 0%; Growth inhibition rate (%) Rice (rice (Oryza sativa L.) [7]; [21]): 20%; Growth inhibition rate (%) Soybean [8, 21]: 20%; Growth inhibition rate (%) Wheat [9, 21]: 93%; Growth inhibition rate (%) Wild oat [10, 21]: 78%
Cc1ccc(Oc2nc3ccc(Cl)cc3o2)cc1-c1c(O)cnn(C(C)C)c1=O [Compound 2-171]	99	80	90	93	30	0	25	30	0	0	65	0	30	75	0	0	0	0	0	0	–
CC(=O)Oc1c(C)nn(C)c(=O)c1-c1cc(Oc2cnc3cc(Cl)ccc3n2)ccc1C [Compound 3-33]	100	10	99	100	98	0	93	30	100	100	100	20	99	100	0	0	60	0	0	40	–
Cc1ccc(Oc2cnc3cc(Cl)ccc3n2)cc1-c1c(OC(=O)OCCCl)c(C)nn(C)c1=O [Compound 3-59]	–	–	–	–	–	–	–	–	–	–	85	0	0	80	0	0	0	0	0	0	Growth inhibition rate (%) Barnyardgrass [1, 21]: 99%; Growth inhibition rate (%) Corn (corn (Zea mays L.) [2]; [21]): 0%; Growth inhibition rate (%) Crabgrass [3, 21]: 98%; Growth inhibition rate (%) Green foxtail [4, 21]: 100%; Growth inhibition rate (%) Italian ryegrass [5, 21]: 93%; Growth inhibition rate (%) Redroot pigweed [6, 21]: 0%; Growth inhibition rate (%) Rice (rice (Oryza sativa L.) [7]; [21]): 0%; Growth inhibition rate (%) Soybean [8, 21]: 20%; Growth inhibition rate (%) Wheat [9, 21]: 65%; Growth inhibition rate (%) Wild oat [10, 21]: 93%
Cc1nn(C)c(=O)c(-c2cc(Oc3ncc(C(F)(F)F)cc3Cl)ccc2OC(F)(F)F)c1O [1-163]	100	100	100	100	99	0	75	0	60	100	100	80	100	100	0	0	40	0	0	0	–

From patent US10870638B2, “Pyridazinone compound or its salt, and herbicide containing it” (ISHIHARA SANGYO KAISHA, LTD., priority 2016, dated 2020)
